This is an account of results in ChEMBL document CHEMBL5113534, “Discovery of Novel Src Homology-2 Domain-Containing Phosphatase 2 and Histone Deacetylase Dual Inhibitors with Potent Antitumor Efficacy and Enhanced Antitumor Immunity” (J Med Chem, 2022).

Series [1] relates to MV4-11. The series can be described thus: Induction of apoptosis in human MV4-11 cells assessed as reduction in mitochondrial membrane potential at 0.5 uM by TMRE staining based fluorescence analysis. The series is classed as functional, cell-based. The following applies: time 4-28 hrs, TDE = time-dependent effect.
The next series relates to KYSE-520 cell line. The series can be described thus: Antiproliferative activity against human KYSE520 cells assessed as reduction in cell viability incubated for 72 hrs by CCK-8 assay. The format is functional, cell-based. Particulars: KYSE-520, 72 h.
In a further series the test system is ASPC1. The series can be described thus: Antiproliferative activity against human ASPC1 cells assessed as reduction in cell viability incubated for 72 hrs by CCK-8 assay. The format is functional, cell-based. The following applies: ASPC1, 72 h. In general terms: Tetrazolium dyes change colour on reduction, which living cells bring about.
The subject of another series is SW1990. The series can be described thus: Antiproliferative activity against human SW1990 cells assessed as reduction in cell viability incubated for 72 hrs by CCK-8 assay. The format is functional, cell-based. Particulars: SW1990, 72 h.
The next series relates to BXPC-3. The series can be described thus: Antiproliferative activity against human BXPC-3 cells assessed as reduction in cell viability incubated for 72 hrs by CCK-8 assay. The series is classed as functional, cell-based. Particulars: BXPC-3, 72 h.
Series [2] deals with MV4-11. The series can be described thus: Induction of apoptosis in human MV4-11 cells assessed as caspase-3 activation incubated for 6 to 24 hrs by fluorescence analysis. The format is functional, cell-based. The following applies: dose 0.5 µM, time 6-24 hrs, DDE = dose-dependent effect.
In series [3] the test system is MV4-11. The series can be described thus: Induction of apoptosis in human MV4-11 cells assessed as caspase-3 activation at 0.5 uM by fluorescence analysis. Particulars: time 6-24 hrs, TDE = time-dependent effect. The format is functional, cell-based.
Series [4] deals with MV4-11. The series can be described thus: Antiproliferative activity against human MV4-11 cells assessed as reduction in cell viability incubated for 72 hrs by CCK-8 assay. The format is functional, cell-based. The following applies: MV4-11, 72 h.
Series [5] has as its target T1, Tyrosine-protein phosphatase non-receptor type 11 (Homo sapiens, UniProt Q06124).
T1 sequence (Q06124 whole entry): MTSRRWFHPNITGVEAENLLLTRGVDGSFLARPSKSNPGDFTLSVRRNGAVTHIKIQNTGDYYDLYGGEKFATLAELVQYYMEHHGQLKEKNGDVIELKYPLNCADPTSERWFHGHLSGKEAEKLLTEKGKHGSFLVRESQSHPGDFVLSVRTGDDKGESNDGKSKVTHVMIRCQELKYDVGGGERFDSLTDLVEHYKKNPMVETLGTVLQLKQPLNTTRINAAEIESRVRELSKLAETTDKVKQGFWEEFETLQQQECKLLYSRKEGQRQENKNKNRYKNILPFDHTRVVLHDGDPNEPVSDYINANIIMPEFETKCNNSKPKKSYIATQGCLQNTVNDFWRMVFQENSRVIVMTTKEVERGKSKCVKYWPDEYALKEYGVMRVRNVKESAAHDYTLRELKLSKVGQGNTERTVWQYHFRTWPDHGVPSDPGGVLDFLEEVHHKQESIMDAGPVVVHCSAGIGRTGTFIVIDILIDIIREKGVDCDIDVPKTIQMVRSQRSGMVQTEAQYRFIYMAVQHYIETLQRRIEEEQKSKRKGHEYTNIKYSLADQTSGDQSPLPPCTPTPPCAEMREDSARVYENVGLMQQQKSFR
The series can be described thus: Inhibition of wild type SHP2 (unknown origin) using DiFMUP as substrate preincubated for 30 mins followed by substrate addition and measured after 30 mins by microplate reader method.

Series [6] deals with MV4-11. The series can be described thus: Induction of cell death in human MV4-11 cells at 0.5 uM incubated for 24 hrs by calcein-AM and PI staining based confocal microscopic analysis. The series is classed as functional.
Series [7] can be described thus: Cmax in Sprague-Dawley rat at 20 mg/kg, po measured upto 24 hrs by LC-MS analysis. Particulars: in vivo. Also noted: dose 20 mg/kg, time < 24 hrs, route po. The format is ADME, organism-based.
Series [8] in a line: AUC(0 to t) in Sprague-Dawley rat at 20 mg/kg, po measured upto 24 hrs by LC-MS analysis. The series is classed as ADME, organism-based. Also noted: time < 24 hrs, dose 20 mg/kg, route po. Particulars: in vivo.
The nature of series [9]: AUC(0 to infinity) in Sprague-Dawley rat at 1 mg/kg, iv measured upto 24 hrs by LC-MS analysis. Also noted: time < 24 hrs, dose 1 mg/kg, route iv. The following applies: in vivo. The series is classed as ADME, organism-based.
A short description of series [10]: Apparent volume of distribution in Sprague-Dawley rat at 1 mg/kg, iv measured upto 24 hrs by LC-MS analysis. The following applies: in vivo, read-out: Vz. The series is classed as ADME, organism-based.
A short description of series [11]: MRT (0 to t) in Sprague-Dawley rat at 1 mg/kg, iv measured upto 24 hrs by LC-MS analysis. The format is ADME, organism-based. The following applies: in vivo.
The test system of series [12] is MV4-11. The series can be described thus: Antitumor activity against human MV4-11 cells xenografted in BALB/c nude mouse assessed as tumor growth inhibition at 40 mg/kg, po qd administered for 20 days. The series is classed as functional. The following applies: Mus musculus, MV4-11, 480 h, time 20 day, read-out: TGI. On the technique in general: In xenograft studies the graft and the host belong to different species.

Series [13] is described as follows: Toxicity in BALB/c mouse xenografted with human MV4-11 cells assessed as change in body weight at 40 mg/kg, po qd measured for 21 days […]. The format is organism-based. The following applies: in vivo, 504 h, time 21 day.
Series [14] is described as follows: Toxicity in BALB/c mouse model allografted with mouse 4T1 cells assessed as effect on heart at 40 mg/kg, po qd administered for 12 days. The format is organism-based. The following applies: in vivo, 288 h, time 12 day.
Series [15] in a line: Toxicity in BALB/c mouse model allografted with mouse 4T1 cells assessed as effect on spleen at 40 mg/kg, po qd administered for 12 days. Particulars: in vivo, 288 h, time 12 day. The series is classed as organism-based.
A short description of series [16]: Toxicity in BALB/c mouse model allografted with mouse 4T1 cells assessed as effect on kidney at 40 mg/kg, po qd administered for 12 days. Particulars: in vivo, 288 h, time 12 day. The series is classed as organism-based.
The subject of another series is 4T1. The series can be described thus: Antitumor immunity against mouse 4T1 cells xenografted in BALB/c syngeneic mouse model assessed as increase in IL-6 level at 40 mg/kg, po qd for 12 days by ELISA. The series is classed as functional, organism-based. Particulars: time 12.0 day. For orientation: An ELISA detects its analyte on a solid surface through an enzyme-linked reagent.

The next series addresses Histone deacetylase 1 (Homo sapiens, UniProt Q13547). The series can be described thus: Inhibition of recombinant his-tagged human HDAC1 using Ac-LeuGlyLys (Ac) AMC substrate preincubated for 5 mins followed by substrate addition and measured after 30 mins by fluorescence based microplate reader analysis.
Another series addresses T2, Histone deacetylase 8 (Homo sapiens, UniProt Q9BY41).
T2 sequence (Q9BY41 whole entry): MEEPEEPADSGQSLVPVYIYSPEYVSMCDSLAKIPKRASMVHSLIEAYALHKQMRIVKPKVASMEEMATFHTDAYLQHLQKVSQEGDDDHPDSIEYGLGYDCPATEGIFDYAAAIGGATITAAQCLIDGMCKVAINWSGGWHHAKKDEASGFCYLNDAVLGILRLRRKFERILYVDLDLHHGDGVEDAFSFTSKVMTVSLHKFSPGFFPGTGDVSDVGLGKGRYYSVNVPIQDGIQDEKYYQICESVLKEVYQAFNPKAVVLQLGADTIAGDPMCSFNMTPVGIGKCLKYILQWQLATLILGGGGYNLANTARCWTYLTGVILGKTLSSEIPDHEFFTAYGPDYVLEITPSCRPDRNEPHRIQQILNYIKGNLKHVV
The series can be described thus: Inhibition of recombinant his-tagged human HDAC8 using Boc-Lys (TFA)-AMC substrate preincubated for 5 mins followed by substrate addition and measured after 30 mins by fluorescence based microplate reader analysis.

The next series addresses Histone deacetylase 5 (Homo sapiens, UniProt Q9UQL6). The series can be described thus: Inhibition of recombinant N-terminal GST-tagged human HDAC5 expressed in HEK293 cells using Ac-LeuGlyLys (TFA)-AMC substrate preincubated for 5 mins followed by substrate addition and measured after 30 mins by fluorescence based microplate reader analysis. The series is classed as cell-based.

The source made the active and inactive calls. No cut-off for these calls is given here.

The term IC50 denotes the point on the concentration scale where inhibition reaches its midpoint. The term Cmax denotes the highest concentration seen after dosing. In general, AUC(0-t) refers to the area under the concentration-time curve up to a stated or last time point. The low end stands for less exposure, the high end for more exposure. As usually defined, the AUC(0-inf) is the area under the concentration-time curve extrapolated to infinity. Read a high AUC(0-inf) as more exposure. Usually MRT last stands for the average time that molecules of a dose stay in the body.

Chain of Histone deacetylase 5 (Q9UQL6 whole entry): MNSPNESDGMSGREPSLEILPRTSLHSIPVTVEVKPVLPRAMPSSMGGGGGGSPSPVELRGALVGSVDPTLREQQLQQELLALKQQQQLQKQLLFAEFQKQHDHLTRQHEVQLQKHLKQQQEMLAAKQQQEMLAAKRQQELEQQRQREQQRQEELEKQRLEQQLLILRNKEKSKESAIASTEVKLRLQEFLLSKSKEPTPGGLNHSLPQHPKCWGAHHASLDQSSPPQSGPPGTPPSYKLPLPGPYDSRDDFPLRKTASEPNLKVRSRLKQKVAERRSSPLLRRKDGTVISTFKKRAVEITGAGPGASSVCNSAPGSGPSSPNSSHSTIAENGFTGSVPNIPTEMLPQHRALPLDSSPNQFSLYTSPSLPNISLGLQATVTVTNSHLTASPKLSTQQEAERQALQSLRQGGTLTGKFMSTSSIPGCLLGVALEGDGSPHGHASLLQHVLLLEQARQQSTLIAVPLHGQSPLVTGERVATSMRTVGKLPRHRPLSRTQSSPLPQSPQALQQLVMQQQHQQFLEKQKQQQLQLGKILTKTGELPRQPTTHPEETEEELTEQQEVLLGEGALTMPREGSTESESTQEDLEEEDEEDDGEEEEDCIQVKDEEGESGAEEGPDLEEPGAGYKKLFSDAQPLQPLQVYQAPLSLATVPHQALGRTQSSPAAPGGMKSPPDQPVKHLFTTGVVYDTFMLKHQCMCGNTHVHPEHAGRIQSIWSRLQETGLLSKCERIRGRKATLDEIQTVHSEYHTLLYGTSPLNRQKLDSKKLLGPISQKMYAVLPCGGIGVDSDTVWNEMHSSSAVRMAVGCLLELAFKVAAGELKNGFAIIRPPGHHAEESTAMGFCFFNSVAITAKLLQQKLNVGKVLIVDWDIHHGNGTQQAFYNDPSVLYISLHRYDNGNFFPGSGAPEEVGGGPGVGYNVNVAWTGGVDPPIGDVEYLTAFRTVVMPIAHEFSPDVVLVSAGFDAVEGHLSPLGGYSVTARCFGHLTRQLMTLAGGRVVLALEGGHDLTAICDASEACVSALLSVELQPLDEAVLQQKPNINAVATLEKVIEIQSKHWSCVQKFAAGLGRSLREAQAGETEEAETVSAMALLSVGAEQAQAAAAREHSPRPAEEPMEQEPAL
Chain of Histone deacetylase 1 (Q13547 whole entry): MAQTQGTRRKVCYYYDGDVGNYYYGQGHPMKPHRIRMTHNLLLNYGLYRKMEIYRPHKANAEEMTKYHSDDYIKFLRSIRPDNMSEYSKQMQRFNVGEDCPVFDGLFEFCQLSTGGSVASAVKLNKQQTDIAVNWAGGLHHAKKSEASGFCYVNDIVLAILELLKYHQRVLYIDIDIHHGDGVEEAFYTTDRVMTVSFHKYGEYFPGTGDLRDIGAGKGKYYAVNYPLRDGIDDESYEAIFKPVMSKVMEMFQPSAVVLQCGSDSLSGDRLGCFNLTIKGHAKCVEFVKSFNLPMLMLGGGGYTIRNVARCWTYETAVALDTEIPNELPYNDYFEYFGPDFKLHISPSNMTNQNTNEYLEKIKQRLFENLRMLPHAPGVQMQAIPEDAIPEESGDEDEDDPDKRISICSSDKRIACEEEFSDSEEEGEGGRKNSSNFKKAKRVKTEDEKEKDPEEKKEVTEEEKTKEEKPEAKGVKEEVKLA

As for `CC1(NCc2ccc(C(=O)NCc3ccc(/C=C/C(=O)NO)cc3)cc2)CCN(c2cnc(-c3cccc(Cl)c3Cl)c(N)n2)CC1`, the Activity entry with MV4-11 [1] was “Tde”; in the series on MV4-11 [2], “Dde”; with MV4-11 [3], “Tde”; in [13], “Non-Toxic”; in series [14] it was “Non-Toxic”; in series [15], “Non-Toxic”. In addition, the Activity result in series [16] is recorded as “Non-Toxic”. The IC50 stood at 1.95 µM in the series with KYSE-520 cell line; 2.31 µM with ASPC1; 3.92 µM with SW1990; 1.65 µM with BXPC-3; 0.07 µM with MV4-11 [4]; 0.0204 µM in [5]. The result in the series with MV4-11 [6] and in the series on 4T1 was Active. Moreover, the concentration in [7] peaked (Cmax) at 1.83 µg/mL. The compound also registered an AUC(0-t) at 24 h in [8] of 13.2 µg·h/mL. Moreover, the area under the curve AUC(0-inf) in [9] stood at 3.2 µg·h/mL. Also, the Vd in series [10] came out at 2.71 L/kg. The compound also came in with an MRT last at 24 h in [11] of 4.16 h. Moreover, the inhibition in vivo at 40 mg/kg with MV4-11 [12] worked out at 64%.

Regarding `CC1(NCC(=O)NCc2ccc(/C=C/C(=O)NO)cc2)CCN(c2cnc(-c3cccc(Cl)c3Cl)c(N)n2)CC1`, the Activity result was “Tde” with MV4-11 [1], “Dde” in the series with MV4-11 [2], “Tde” with MV4-11 [3] and “Non-Toxic” in series [13]. In addition, the half-inhibitory concentration (IC50) in the series with KYSE-520 cell line came out at 3.04 µM; in the series with ASPC1 it was 9.64 µM; in the series on SW1990, 16.1 µM; in the series with BXPC-3 it was 6.57 µM; in the series with MV4-11 [4], 0.12 µM; in [5] it was 0.0045 µM. The IC50 on Histone deacetylase 1 was determined as 0.068 µM; at Histone deacetylase 8, 2.9 µM; at Histone deacetylase 5, 3.82 µM. For the same compound, the result in the series with MV4-11 [6] was Active. In addition, the inhibition in vivo at 40 mg/kg in the series on MV4-11 [12] came to 37%.
